Results reported in US10723741B1, “DNA polymerase IIIC inhibitors and use thereof” (Acurx Pharmaceuticals, LLC, priority 2018, dated 2020).
Values after ≈ are worked out from the molar mass of the structure shown. Where two headings read alike, the source gives them in different places.

Legend:
Type in all cases: cell-based
[1] = test system: Staphylococcus aureus NRS384 (MRSA); experiment: Broth microdilution MIC, S. aureus NRS384 (MRSA); set-up: MIC NRS 384 (MRSA): unit not given here; conditions: for MIC: Staphylococcus aureus, read-out: MIC NRS 384 (MRSA)
In short: (§1)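 Two-fold dilutions from 64 to 0.0625 μg/ml final, 1% DMSO, were inoculated at ~5.0×10^5 cfu/ml in the strain's test medium and kept 20 h at 37 °C in ambient atmosphere. Colonies were grown on MHA, with S. pneumoniae on blood agar under 5% CO2.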

[2] = test system: Staphylococcus aureus ATCC 29213 (MSSA); experiment: Broth microdilution MIC, S. aureus ATCC 29213 (MSSA); conditions: read-out: MIC S. aureus ATCC 29213 (MSSA)
In short: as §1

[3] = test system: Enterococcus faecalis ATCC 29212; experiment: Broth microdilution MIC, E. faecalis ATCC 29212; conditions: read-out: MIC E. faecalis ATCC 29212
In short: as §1

[4] = test system: Enterococcus faecium ATCC 700221 (VRE); experiment: Broth microdilution MIC, E. faecium ATCC 700221 (VRE); set-up: MIC E. faecium ATCC 700221 (VRE): unit: ug/mL; conditions: for MIC: Enterococcus faecium, read-out: MIC E. faecium ATCC 700221 (VRE)
In short: as §1

[5] = test system: Streptococcus pneumoniae ATCC 49619; experiment: Broth microdilution MIC, S. pneumoniae ATCC 49619; conditions: read-out: MIC S. pneumoniae ATCC 49619
In short: as §1

[6] = test system: Bacillus subtilis ATCC 6633; experiment: Broth microdilution MIC, B. subtilis ATCC 6633; conditions: read-out: MIC B. subtilis ATCC 6633
In short: as §1

[7] = test system: Escherichia coli ATCC 25922; experiment: Broth microdilution MIC, E. coli ATCC 25922 (MHIIB w & w/o 4 mM EDTA); conditions: for MIC: Escherichia coli, read-out: MIC E. coli ATCC 25922; for MIC E. coli ATCC 25922 + 4 mM EDTA: with 4 mM EDTA
In short: as §1

[8] = broth microdilution, 37° C., 20 hours
[9] = ATCC29212, broth microdilution, 37° C., 20 hours
[10] = ATCC49619, broth microdilution, 37° C., 20 hours
[11] = ATCC6633, broth microdilution, 37° C., 20 hours
[12] = ATCC25922, without EDTA, broth microdilution, 37° C., 20 hours

Row | SMILES | MIC [1, 8] [µg/mL] | MIC [2, 8] [µg/mL] | MIC [3, 9] [µg/mL] | MIC [4, 8] [µg/mL] | MIC [5, 10] [µg/mL] | MIC [6, 11] [µg/mL] | MIC [7, 12] [µg/mL] | MIC E. coli ATCC 25922 + 4 mM EDTA [7, 8] [µg/mL] | MIC NRS 384 (MRSA) [1, 8] | MIC E. faecium ATCC 700221 (VRE) [4, 8] | MIC ([1]; 20 h) [µg/mL] | MIC ([2]; 20 h) [µg/mL] | MIC ([3]; ATCC29212, 20 h) [µg/mL] | MIC ([4]; 20 h) [µg/mL] | MIC ([5]; ATCC49619, 20 h) [µg/mL] | MIC ([6]; ATCC6633, 20 h) [µg/mL] | MIC ([7]; ATCC25922, 20 h) [µg/mL]
1 | Cn1ncc2nc(NCc3cc[nH]n3)[nH]c(=O)c21 [Compound 16, 5-(((1H-pyrazol-3-yl)methyl)amino)-1-methyl-1H-pyrazolo[4,3-d]pyrimidin-7(6H)-one] | > 64 | > 64 | > 64 | > 64 | > 64 | > 64 | > 64 | >64 |  |  |  |  |  |  |  |  | 
2 | CC(C)(C)OC(=O)NCCOCCn1ncc2nc(NCc3ccc(Cl)c(Cl)c3)[nH]c(=O)c21 [Compound 100, tert-Butyl (2-(2-(5-((3,4-dichlorobenzyl)amino)-7-oxo-6,7-dihydro-1H-pyrazolo[4,3-d]pyrimidin-1-yl)ethoxy)ethyl)carbamate] |  |  |  |  |  |  |  | >64 |  |  | > 64 | > 64 | > 64 | 4 (≈ 8.04 µM) | 8 (≈ 16.1 µM) | 2 (≈ 4.02 µM) | > 64
3 | CCOC(=O)C1(Cn2ncc3nc(NCc4ccc(Cl)c(Cl)c4)[nH]c(=O)c32)CCNCC1.Cl [Compound 194, ethyl 4-((5-((3,4-dichlorobenzyl)amino)-7-oxo-6,7-dihydro-1H-pyrazolo[4,3-d]pyrimidin-1-yl)methyl)piperidine-4-carboxylate hydrochloride] | > 64 | 64 | 32 | 32 | 16 | 8 | > 64 | 64 |  |  |  |  |  |  |  |  | 
4 | Cn1ncc2nc(NCc3cc(Cl)c(Cl)cn3)[nH]c(=O)c21.O=C(O)C(F)(F)F [Compound 36, 5-(((4,5-Dichloropyridin-2-yl)methyl)amino)-1-methyl-1H-pyrazolo[4,3-d]pyrimidin-7(6H)-one-2,2,2-trifluoroacetate] | > 64 | > 64 | > 64 | > 64 | > 64 | > 64 | > 64 | >64 |  |  |  |  |  |  |  |  | 
5 | Cn1ncc2nc(NCCc3ccc(Cl)c(Cl)c3)[nH]c(=O)c21 [Compound 8, 5-((3,4-Dichlorophenethyl)amino)-1-methyl-1H-pyrazolo[4,3-d]pyrimidin-7(6H)-one] | > 64 | > 64 | > 64 | > 64 | > 64 | > 64 | > 64 | >64 |  |  |  |  |  |  |  |  | 
6 | Cn1ncc2nc(NCc3cncs3)[nH]c(=O)c21 [Compound 20, 1-Methyl-5-((thiazol-5-ylmethyl)amino)-1H-pyrazolo[4,3-d]pyrimidin-7(6H)-one] | > 64 | > 64 | > 64 | > 64 | > 64 | > 64 | > 64 | >64 |  |  |  |  |  |  |  |  | 
7 | COP(=O)(OC)OCCOCCn1ncc2nc(NCc3ccc(Cl)c(Cl)c3)[nH]c(=O)c21 [Compound 297, 2-(2-(5-((3,4-dichlorobenzyl)amino)-7-oxo-6,7-dihydro-1H-pyrazolo[4,3-d]pyrimidin-1-yl)ethoxy)ethyl dimethyl phosphate] |  |  |  |  |  |  |  | >64 |  |  | 32 | 16 | 16 | 8 | 8 | 8 | > 64
8 | Cl.O=c1[nH]c(NCc2ccc(Cl)c(Cl)c2)nc2cnn(CC3CCNC3)c12 (stereo not shown) [Compound 155, 5-((3,4-dichlorobenzyl)amino)-1-(pyrrolidin-3-ylmethyl)-1H-pyrazolo[4,3-d]pyrimidin-7(6H)-one hydrochloride] | 64 | 32 | 64 | 32 | 8 | 4 | > 64 | >64 |  |  |  |  |  |  |  |  | 

Now from value to compound, other results behind:

Row | MIC [1, 8] [µg/mL] | MIC [2, 8] [µg/mL] | MIC [3, 9] [µg/mL] | MIC [4, 8] [µg/mL] | MIC [5, 10] [µg/mL] | MIC [6, 11] [µg/mL] | MIC [7, 12] [µg/mL] | MIC E. coli ATCC 25922 + 4 mM EDTA [7, 8] [µg/mL] | MIC NRS 384 (MRSA) [1, 8] | MIC E. faecium ATCC 700221 (VRE) [4, 8] | SMILES | MIC ([1]; 20 h) [µg/mL] | MIC ([2]; 20 h) [µg/mL] | MIC ([3]; ATCC29212, 20 h) [µg/mL] | MIC ([4]; 20 h) [µg/mL] | MIC ([5]; ATCC49619, 20 h) [µg/mL] | MIC ([6]; ATCC6633, 20 h) [µg/mL] | MIC ([7]; ATCC25922, 20 h) [µg/mL]
9 | 8 (≈ 19.5 µM) | 4 (≈ 9.73 µM) | 8 (≈ 19.5 µM) | 2 (≈ 4.86 µM) | 4 (≈ 9.73 µM) | 2 (≈ 4.86 µM) | > 64 | >64 |  |  | O=c1[nH]c(NCc2ccc(Cl)c(Cl)c2)nc2cnn(CCOC/C=N/O)c12 [Compound 191, (E)-2-(2-(5-((3,4-dichlorobenzyl)amino)-7-oxo-6,7-dihydro-1H-pyrazolo[4,3-d]pyrimidin-1-yl)ethoxy)acetaldehyde oxime] |  |  |  |  |  |  | 
10 | 2 (≈ 6.58 µM) | 4 (≈ 13.2 µM) | 8 (≈ 26.3 µM) | 4 (≈ 13.2 µM) | 4 (≈ 13.2 µM) | 2 (≈ 6.58 µM) | > 64 | >64 |  |  | Cc1cc(CNc2nc3cnn(C)c3c(=O)[nH]2)ccc1Cl [Compound 35, 5-((4-Chloro-3-methylbenzyl)amino)-1-methyl-1H-pyrazolo[4,3-d]pyrimidin-7(6H)-one] |  |  |  |  |  |  | 
11 | 4 (≈ 13.2 µM) | 4 (≈ 13.2 µM) | 8 (≈ 26.3 µM) | 4 (≈ 13.2 µM) | 8 (≈ 26.3 µM) | 2 (≈ 6.58 µM) | > 64 | 16 |  |  | Cc1ccc(CNc2nc3cnn(C)c3c(=O)[nH]2)cc1Cl [Compound 31, 5-((3-Chloro-4-methylbenzyl)amino)-1-methyl-1H-pyrazolo[4,3-d]pyrimidin-7(6H)-one] |  |  |  |  |  |  | 
12 | 8 (≈ 18.3 µM) | 16 (≈ 36.7 µM) | 8 (≈ 18.3 µM) | 4 (≈ 9.17 µM) | 4 (≈ 9.17 µM) | 2 (≈ 4.58 µM) | > 64 | >64 |  |  | CN1CCN(CCn2ncc3nc(NCc4ccc(Cl)c(Cl)c4)[nH]c(=O)c32)CC1 [Compound 58, 5-((3,4-Dichlorobenzyl)amino)-1-(2-(4-methylpiperazin-1-yl)ethyl)-1H-pyrazolo[4,3-d]pyrimidin-7(6H)-one] |  |  |  |  |  |  | 
13 | 2 | 4 | 4 | 2 | 8 | 1 | > 64 | >64 |  |  | Cl.O=c1[nH]c(NCc2ccc(Cl)c(Cl)c2)nc2cnn(CCc3cnccn3)c12 [Compound 124, 5-((3,4-Dichlorobenzyl)amino)-1-(2-(pyrazin-2-yl)ethyl)-1H-pyrazolo[4,3-d]pyrimidin-7(6H)-one hydrochloride] |  |  |  |  |  |  | 
14 | 4 (≈ 9.52 µM) | 4 (≈ 9.52 µM) | 4 (≈ 9.52 µM) | 2 (≈ 4.76 µM) | 2 (≈ 4.76 µM) | 2 (≈ 4.76 µM) | > 64 | 64 |  |  | Cc1nnc(CCn2ncc3nc(NCc4ccc(Cl)c(Cl)c4)[nH]c(=O)c32)o1 [Compound 233, 5-((3,4-dichlorobenzyl)amino)-1-(2-(5-methyl-1,3,4-oxadiazol-2-yl)ethyl)-1H-pyrazolo[4,3-d]pyrimidin-7(6H)-one] |  |  |  |  |  |  | 
15 | 16 (≈ 34.8 µM) | 8 (≈ 17.4 µM) | 8 (≈ 17.4 µM) | 2 (≈ 4.34 µM) | 2 (≈ 4.34 µM) | 4 (≈ 8.69 µM) | > 64 | >64 |  |  | CS(=O)(=O)CCOCCn1ncc2nc(NCc3ccc(Cl)c(Cl)c3)[nH]c(=O)c21 [Compound 220, 5-((3,4-dichlorobenzyl)amino)-1-(2-(2-(methylsulfonyl)ethoxy)ethyl)-1H-pyrazolo[4,3-d]pyrimidin-7(6H)-one] |  |  |  |  |  |  | 
16 | 32 | 32 | 16 | 16 | 8 | 8 | > 64 | >64 |  |  | CN(C)C1CCN(CCn2ncc3nc(NCc4ccc(Cl)c(Cl)c4)[nH]c(=O)c32)CC1.Cl.Cl [Compound 67, 5-((3,4-Dichlorobenzyl)amino)-1-(2-(4-(dimethylamino)piperidin-1-yl)ethyl)-1H-pyrazolo[4,3-d]pyrimidin-7(6H)-one dihydrochloride] |  |  |  |  |  |  | 
17 |  | 8 | 8 |  | 4 | 2 | 64 | 16 | 4/4 | 4/4 | Cl.Cl.O=c1[nH]c(NCc2ccc(Cl)c(Cl)c2)nc2cnn(C3CCN(c4ccncc4)C3)c12 (stereo not shown) [Compound 180, 5-((3,4-Dichlorobenzyl)amino)-1-(1-(pyridin-4-yl)pyrrolidin-3-yl)-1H-pyrazolo[4,3-d]pyrimidin-7(6H)-one dihydrochloride] |  |  |  |  |  |  | 
